In ChEMBL document CHEMBL5331098, “Nanomolar β-glucosidase and β-galactosidase inhibition by enantiomeric α-1-C-alkyl-1,4-dideoxy-1,4-imino-arabinitol derivatives” (Eur J Med Chem, 2023):

How the values were obtained:
[1] = molecular target: T1, Alpha-mannosidase (Canavalia ensiformis) (UniProt C0HJB3); experiment: Inhibition of jack bean alpha-mannosidase assessed as reduction of p-nitrophenol release using p-nitrophenyl glycoside as substrate at 1000 uM by spectrophotometric analysis relative to control
T1 sequence (whole entry): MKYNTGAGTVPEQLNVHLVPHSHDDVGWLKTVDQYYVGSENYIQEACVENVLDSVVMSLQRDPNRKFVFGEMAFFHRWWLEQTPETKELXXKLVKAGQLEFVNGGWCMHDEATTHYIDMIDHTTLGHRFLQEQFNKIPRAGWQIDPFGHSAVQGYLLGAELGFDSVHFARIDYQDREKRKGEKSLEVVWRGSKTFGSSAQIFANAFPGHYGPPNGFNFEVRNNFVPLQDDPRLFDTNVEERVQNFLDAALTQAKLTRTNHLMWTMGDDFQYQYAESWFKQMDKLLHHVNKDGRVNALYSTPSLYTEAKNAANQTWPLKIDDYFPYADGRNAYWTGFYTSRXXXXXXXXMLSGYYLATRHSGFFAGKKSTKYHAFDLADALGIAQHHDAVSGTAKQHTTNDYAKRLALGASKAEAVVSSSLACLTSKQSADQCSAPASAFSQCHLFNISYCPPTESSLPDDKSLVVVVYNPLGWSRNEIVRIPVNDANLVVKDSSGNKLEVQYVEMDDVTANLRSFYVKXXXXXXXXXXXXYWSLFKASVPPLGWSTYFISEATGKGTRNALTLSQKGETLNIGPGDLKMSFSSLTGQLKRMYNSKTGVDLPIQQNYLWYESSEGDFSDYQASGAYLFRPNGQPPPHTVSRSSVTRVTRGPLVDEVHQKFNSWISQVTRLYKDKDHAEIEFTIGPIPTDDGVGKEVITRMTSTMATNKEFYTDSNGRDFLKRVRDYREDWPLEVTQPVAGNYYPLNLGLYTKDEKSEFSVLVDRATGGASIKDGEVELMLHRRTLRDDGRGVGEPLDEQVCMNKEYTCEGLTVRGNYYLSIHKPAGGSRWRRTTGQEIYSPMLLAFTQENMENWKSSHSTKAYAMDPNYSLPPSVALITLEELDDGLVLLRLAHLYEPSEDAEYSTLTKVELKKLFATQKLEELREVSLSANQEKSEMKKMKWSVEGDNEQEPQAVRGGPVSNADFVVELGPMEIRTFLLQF

Alpha-glucosidase = Alpha-glucosidase (Saccharomyces cerevisiae S288c, UniProt P53341+P38158+P07265); experiment: Inhibition of yeast alpha-glucosidase assessed as reduction of p-nitrophenol release using p-nitrophenyl glycoside as substrate by spectrophotometric analysis; assay type: protein assay
[2] = Inhibition of almond beta-glucosidase assessed as reduction of p-nitrophenol release using p-nitrophenyl glycoside as substrate by spectrophotometric analysis; parameters: species or system Prunus dulcis
Bos taurus [3] = species: Bos taurus; experiment: Inhibition of bovine liver beta-glucuronidase assessed as reduction of p-nitrophenol release using p-nitrophenyl-glycoside as substrate at 1000 uM by spectrophotometric analysis relative to control
[4] = Inhibition of Penicillium decumbens alpha-L-rhamnosidase assessed as reduction of p-nitrophenol release using p-nitrophenyl-glycoside as substrate by spectrophotometric analysis
[5] = molecular target: T2, Tissue alpha-L-fucosidase (Bos taurus, UniProt Q2KIM0); experiment: Inhibition of bovine kidney alpha-L-fucosidase assessed as reduction of p-nitrophenol release using p-nitrophenyl glycoside as substrate by spectrophotometric analysis
T2 sequence (Q2KIM0 whole entry): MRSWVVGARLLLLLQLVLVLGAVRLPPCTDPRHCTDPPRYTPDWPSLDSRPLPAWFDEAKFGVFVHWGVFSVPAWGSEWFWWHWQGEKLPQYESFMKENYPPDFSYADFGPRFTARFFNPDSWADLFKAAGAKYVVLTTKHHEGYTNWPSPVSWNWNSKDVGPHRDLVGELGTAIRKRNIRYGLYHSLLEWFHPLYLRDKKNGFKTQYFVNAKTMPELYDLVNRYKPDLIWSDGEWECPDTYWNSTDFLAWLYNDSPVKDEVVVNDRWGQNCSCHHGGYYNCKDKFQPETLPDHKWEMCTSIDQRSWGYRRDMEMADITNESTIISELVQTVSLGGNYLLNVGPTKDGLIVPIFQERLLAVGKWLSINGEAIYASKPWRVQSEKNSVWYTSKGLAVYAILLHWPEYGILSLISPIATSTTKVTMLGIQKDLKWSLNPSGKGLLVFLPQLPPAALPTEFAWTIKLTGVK

[6] = Inhibition of bovine liver beta-glucosidase assessed as reduction of p-nitrophenol release using p-nitrophenyl glycoside as substrate by spectrophotometric analysis; parameters: species or system Bos taurus
[7] = Inhibition of bovine liver beta-galactosidase assessed as reduction of p-nitrophenol release using p-nitrophenyl glycoside as substrate by spectrophotometric analysis; parameters: species or system Bos taurus
[8] = Inhibition of rice alpha-glucosidase assessed as reduction of p-nitrophenol release using p-nitrophenyl glycoside as substrate by spectrophotometric analysis; parameters: species or system Oryza sativa
Beta-glucuronidase = Beta-glucuronidase (Escherichia coli (strain K12), UniProt P05804); experiment: Inhibition of Escherichia coli beta-glucuronidase assessed as reduction of p-nitrophenol release using p-nitrophenyl-glycoside as substrate by spectrophotometric analysis
Aspergillus niger = experiment: Inhibition of Aspergillus niger amyloglucosidase assessed as reduction of p-nitrophenol release using p-nitrophenyl-glycoside as substrate at 1000 uM by spectrophotometric analysis relative to control
Sus scrofa = species: Sus scrofa; experiment: Inhibition of porcine kidney alpha/alpha-trehalase assessed as reduction of p-nitrophenol release using p-nitrophenyl glycoside as substrate at 1000 uM by spectrophotometric analysis relative to control
[9] = Inhibition of rat intestinal maltase assessed as D-glucose release using maltose as substrate at pH 6.8 by colorimetric method
[10] = molecular target: Alpha-galactosidase (Coffea arabica) (UniProt Q42656); experiment: Inhibition of coffee beans alpha-galactosidase assessed as reduction of p-nitrophenol release using p-nitrophenyl glycoside as substrate at 1000 uM by spectrophotometric analysis relative to control
Helix pomatia = experiment: Inhibition of snail beta-mannosidase assessed as reduction of p-nitrophenol release using p-nitrophenyl glycoside as substrate at 1000 uM by spectrophotometric analysis relative to control
[11] = Inhibition of human beta-glucosidase
[12] = molecular target: T3, Tissue alpha-L-fucosidase (Bos taurus) (UniProt Q2KIM0); experiment: Inhibition of bovine kidney alpha-L-fucosidase assessed as reduction of p-nitrophenol release using p-nitrophenyl glycoside as substrate at 1000 uM by spectrophotometric analysis relative to control
T3 sequence (whole entry): T2 sequence (Q2KIM0 whole entry)

[13] = molecular target: Alpha-glucosidase (Saccharomyces cerevisiae S288c) (UniProt P53341+P38158+P07265); experiment: Inhibition of yeast alpha-glucosidase assessed as reduction of p-nitrophenol release using p-nitrophenyl glycoside as substrate at 1000 uM by spectrophotometric analysis relative to control; assay type: protein assay
Bos taurus [14] = species: Bos taurus; experiment: Inhibition of bovine liver beta-glucosidase assessed as reduction of p-nitrophenol release using p-nitrophenyl glycoside as substrate at 1000 uM by spectrophotometric analysis relative to control
[15] = Inhibition of human lysosomal beta-glucosidase assessed as reduction of p-nitrophenol release using p-nitrophenyl glycoside as substrate by spectrophotometric analysis
[16] = molecular target: Beta-glucuronidase (Escherichia coli (strain K12)) (UniProt P05804); experiment: Inhibition of Escherichia coli beta-glucuronidase assessed as reduction of p-nitrophenol release using p-nitrophenyl-glycoside as substrate at 1000 uM by spectrophotometric analysis relative to control
Prunus dulcis = experiment: Inhibition of almond beta-glucosidase assessed as reduction of p-nitrophenol release using p-nitrophenyl glycoside as substrate at 1000 uM by spectrophotometric analysis relative to control
[17] = Inhibition of bovine liver beta-glucuronidase assessed as reduction of p-nitrophenol release using p-nitrophenyl-glycoside as substrate by spectrophotometric analysis; parameters: species or system Bos taurus
Penicillium decumbens = experiment: Inhibition of Penicillium decumbens alpha-L-rhamnosidase assessed as reduction of p-nitrophenol release using p-nitrophenyl-glycoside as substrate at 1000 uM by spectrophotometric analysis relative to control

Alpha-galactosidase (Coffea arabica), sequence (Q42656 16-378 limits assumed): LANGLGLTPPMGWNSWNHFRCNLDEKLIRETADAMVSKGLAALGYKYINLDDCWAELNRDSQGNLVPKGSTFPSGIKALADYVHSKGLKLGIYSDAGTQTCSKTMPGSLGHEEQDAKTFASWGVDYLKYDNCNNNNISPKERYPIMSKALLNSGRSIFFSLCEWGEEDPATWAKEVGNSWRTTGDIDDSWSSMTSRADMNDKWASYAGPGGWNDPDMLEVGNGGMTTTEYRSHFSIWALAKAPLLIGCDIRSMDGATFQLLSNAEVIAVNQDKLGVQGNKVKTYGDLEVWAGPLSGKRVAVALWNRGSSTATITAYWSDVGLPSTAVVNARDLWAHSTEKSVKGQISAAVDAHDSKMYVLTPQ
Beta-glucuronidase, sequence (P05804 whole entry): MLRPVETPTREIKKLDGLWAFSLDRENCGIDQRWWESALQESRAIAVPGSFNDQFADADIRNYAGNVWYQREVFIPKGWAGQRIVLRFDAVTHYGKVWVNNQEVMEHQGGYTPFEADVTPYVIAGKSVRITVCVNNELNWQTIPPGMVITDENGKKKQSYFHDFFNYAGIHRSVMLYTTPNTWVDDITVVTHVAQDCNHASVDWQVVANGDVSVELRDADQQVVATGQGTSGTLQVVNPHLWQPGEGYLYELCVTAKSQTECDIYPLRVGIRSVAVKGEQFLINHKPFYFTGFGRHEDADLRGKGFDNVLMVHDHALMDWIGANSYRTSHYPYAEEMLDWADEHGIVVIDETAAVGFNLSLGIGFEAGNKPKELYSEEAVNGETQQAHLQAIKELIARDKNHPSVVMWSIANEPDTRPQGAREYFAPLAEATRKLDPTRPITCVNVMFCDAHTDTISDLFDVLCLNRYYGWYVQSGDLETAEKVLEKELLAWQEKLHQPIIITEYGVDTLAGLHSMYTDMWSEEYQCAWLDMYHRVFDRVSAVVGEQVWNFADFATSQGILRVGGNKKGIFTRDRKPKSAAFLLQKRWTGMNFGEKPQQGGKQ
Beta-glucuronidase (Escherichia coli (strain K12)), sequence (P05804 whole entry, looked up): as the sequence (P05804 whole entry) above

SMILES | inhibition [1] | IC50 [7] | IC50 [8] | inhibition (Aspergillus niger) | inhibition (Sus scrofa) | IC50 [9] | inhibition [10] | inhibition (Helix pomatia) | also measured
Cl.OC[C@@H]1N[C@@H](CCCCCCCc2ccccc2)[C@H](O)[C@H]1O | 14.7% | 16 µM | 11 µM | 7.2% | 5.6% | 1.9 µM | 12.1% | 6.7% | IC50 (Alpha-glucosidase): 802 µM; IC50 [2]: 206 µM; inhibition (Bos taurus [3]): 41.5%; IC50 [4]: 409 µM; IC50 [5]: 91 µM; IC50 [6]: 305 µM; IC50 (Beta-glucuronidase): 133 µM
CCCCCCCCCCCCCC1N[C@H](CO)[C@@H](O)[C@@H]1O (some centres not stated) |  |  |  |  |  |  |  |  | IC50 [11]: 0.77 µM
Cc1ccc(CCCCCC[C@@H](O)[C@@H]2N[C@@H](CO)[C@H](O)[C@H]2O)cc1 | 9.3% | 46 µM | 63 µM | 11.3% | 0% | 13 µM | 1.6% | 0% | inhibition [12]: 0%; inhibition [13]: 37.6%; inhibition (Bos taurus [14]): 45.4%; IC50 [15]: 25 µM; inhibition [16]: 24.5%; inhibition (Prunus dulcis): 14.7%; IC50 [17]: 65 µM; inhibition (Penicillium decumbens): 2.1%
